Tested on: strain B of Bacillus cereus (β-lactamase SF-marker)
Test: Sensitivity profile of B. cereus in soil suspension using inducible β-lactamase as SF-marker (iodometric starch-iodine decolorization)
Format: cell-based
Settings: for inhibition of the enzymatic reaction / remaining part of the enzymatic reaction: compared with control sample; for increase of time needed for decolorization versus control: compared with control sample (47 seconds); for effect on activity / synthesis of the SF marker (β-lactamase) / sensitivity or resistance of strain B to the antibiotic: judged from decolorization time; for Decolorization time: soil suspension in nutrient broth with 1.0 mcg cloxacillin inducer, 10 min at 30° C., then Assay Reagent with phenoxymethylpenicillin, control without addition 47 seconds, activity inversely proportional to time
Description: Reagents • Nutrient broth and Nutrient Agar were purchased from Difco (cat. No. #233000 and #211665, respectively). • Mueller Hinton agar—purchased from Difco (cat. No. 225250). • Assay Reagent solution—50 mM potassium iodide and 10 mM iodine in 0.75% aqueous starch solution • L-alanine—was used for spore germination (purchased from Fluka, cat no. 29236).
BBL antibiotic sensitivity testing disks were used for sensitivity profiling were placed in respective test tubes:
Preparation of anti-penicillinase antibodies was previously described by the present inventor [Citri, N; et al. Nature 190 (478):1010-1011 (1961)]. Briefly neutralizing antiserum was prepared by immunizing rabbits with a highly purified preparation of exopenicillinase produced by strain 569/H of B. cereus. Twenty mg of the enzyme were administered with Freund's adjuvant in three intramuscular injections at ten-day intervals.
In order to perform a combined characterization of bacteria identification and antibiotic sensitivity profiling, the inventor used a strain of Bacillus cereus expressing the characterizing enzyme β-lactamase (penicillinase) that is used herein as a structural-functional marker (SF-marker).
A colony of strain B of Bacillus cereus was dispersed in 0.5 gm of garden soil suspended in 3 ml of distilled water. Samples of the suspension, 0.3 ml each, were placed in 5 test, tubes, each containing 0.5 ml nutrient broth [double strength] spiked with 1.0 mcg cloxacillin, and each supplemented as listed in Table 1 below. After 10 min. at 30° C. the test was initiated by the addition to each test tube of 0.1 ml of the Assay Reagent solution containing the substrate, phenoxymethylpenicillin [10 mg/mL]. The time required for complete decolorization of the starch-iodine complex by the product of the catalytic reaction was recorded as shown in Table 1.

Q: With C[C@H]1c2cccc(O)c2C(=O)C2=C(O)[C@]3(O)C(=O)C(C(N)=O)=C(O)[C@@H](N(C)C)[C@@H]3[C@@H](O)[C@@H]21 [Doxycyclin, Doxycycline] as the compound, how does the “inhibition of the enzymatic reaction” value read?
A: The value was “about 99%”.

Q: And the “remaining part of the enzymatic reaction” value?
A: Its value is “about 0.12%”.

Q: And the “increase of time needed for decolorization versus control” value?
A: The value was “about 17.3 folds”.

Q: And the “effect on activity / synthesis of the SF marker (β-lactamase)” value?
A: Its value is “inhibited”.

Q: And the “sensitivity or resistance of strain B to the antibiotic” value?
A: The value was “sensitive”.

Q: And the Decolorization time?
A: The Decolorization time was 815 s.

Q: What does the source list for CC[C@H]1OC(=O)[C@H](C)[C@@H](O[C@H]2C[C@@](C)(OC)[C@@H](O)[C@H](C)O2)[C@H](C)[C@@H](O[C@@H]2O[C@H](C)C[C@H](N(C)C)[C@H]2O)[C@](C)(O)C[C@@H](C)C(=O)[C@H](C)[C@@H](O)[C@]1(C)O [Erythromycin]?
A: inhibition of the enzymatic reaction: about 99%; remaining part of the enzymatic reaction: about 0.12%; increase of time needed for decolorization versus control: ~18 folds; effect on activity / synthesis of the SF marker (β-lactamase): inhibited; sensitivity or resistance of strain B to the antibiotic: sensitive; Decolorization time: >850 s

Q: Which results are given for Gentamicin?
A: effect on activity / synthesis of the SF marker (β-lactamase): no effect; sensitivity or resistance of strain B to the antibiotic: resistant; Decolorization time: 48 s

— patent US20110065595A1, “Method and Test Kit for the Rapid Identification and Characterization of Cells” (priority 2007, published 2011)
